Results from ChEMBL document CHEMBL3627691, “Structure activity relationships of benzyl C-region analogs of 2-(3-fluoro-4-methylsulfonamidophenyl)propanamides as potent TRPV1 antagonists” (Bioorg Med Chem, 2015).
pIC50, pKi: −log10 of the molar value.

Experiments:
[1] = biological target: T1, Transient receptor potential cation channel subfamily V member 1 (Homo sapiens, UniProt Q8NER1); assay: Antagonist activity at human TRPV1 heterologously expressed in CHO cells assessed as inhibition of capsaicin-induced activation by FLIPR assay; type: cell-based; conditions: for pKi: read-out: Ki; for Ki: cho
T1 sequence (Q8NER1 whole entry): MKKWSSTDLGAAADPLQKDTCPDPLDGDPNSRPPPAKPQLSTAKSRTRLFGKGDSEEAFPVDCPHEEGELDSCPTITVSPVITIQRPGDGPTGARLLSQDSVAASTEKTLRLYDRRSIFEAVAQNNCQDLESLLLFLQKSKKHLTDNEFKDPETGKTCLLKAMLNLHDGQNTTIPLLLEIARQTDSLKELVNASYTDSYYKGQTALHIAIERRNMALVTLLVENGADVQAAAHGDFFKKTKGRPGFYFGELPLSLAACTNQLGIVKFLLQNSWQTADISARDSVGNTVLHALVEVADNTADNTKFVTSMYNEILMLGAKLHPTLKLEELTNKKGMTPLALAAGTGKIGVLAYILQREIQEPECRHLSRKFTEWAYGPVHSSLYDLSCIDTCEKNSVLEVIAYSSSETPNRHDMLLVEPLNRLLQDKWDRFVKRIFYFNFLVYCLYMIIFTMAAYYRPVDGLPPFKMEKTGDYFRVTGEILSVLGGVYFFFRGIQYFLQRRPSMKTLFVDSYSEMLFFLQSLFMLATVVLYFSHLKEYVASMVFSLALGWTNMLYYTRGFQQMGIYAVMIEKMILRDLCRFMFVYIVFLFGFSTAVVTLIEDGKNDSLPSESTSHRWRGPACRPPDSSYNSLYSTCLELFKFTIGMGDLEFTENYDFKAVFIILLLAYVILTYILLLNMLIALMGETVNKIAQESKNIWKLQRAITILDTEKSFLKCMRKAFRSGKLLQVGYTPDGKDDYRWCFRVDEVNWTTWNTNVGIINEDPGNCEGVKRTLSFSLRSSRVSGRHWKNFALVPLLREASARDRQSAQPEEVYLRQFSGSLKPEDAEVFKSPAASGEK

[2] = biological target: T1, Transient receptor potential cation channel subfamily V member 1; assay: Antagonist activity at human TRPV1 heterologously expressed in CHO cells assessed as inhibition of NADA-induced activation by FLIPR assay; type: cell-based
Mus musculus [3] = assay: Inhibition of capsaicin-induced hypothermia in mouse at 0.3 and 3 mg/kg, po administered 15 mins prior to capsaicin challenge measured 30 mins post capsaicin challenge; type: functional, organism-based
Mus musculus [4] = assay: Inhibition of capsaicin-induced hypothermia in mouse at 3 mg/kg, po administered 15 mins prior to capsaicin challenge measured 30 mins post capsaicin challenge; type: functional
[5] = biological target: T1, Transient receptor potential cation channel subfamily V member 1; assay: Antagonist activity at human TRPV1 heterologously expressed in CHO cells assessed as inhibition of low pH-induced activation; type: cell-based
Mus musculus [6] = assay: Induction of hyperthermia in mouse at 0.3 and 3 mg/kg, po; conditions: in vivo
Mus musculus [7] = assay: Analgesic activity in Bennett mouse model of neuropathic pain assessed as reduction of CCI-induced cold allodynia at 0.0001 to 100 mg/kg, po; type: functional, organism-based
[8] = biological target: T1, Transient receptor potential cation channel subfamily V member 1; assay: Antagonist activity at human TRPV1 heterologously expressed in CHO cells assessed as inhibition of low 45 degC heat -induced activation; type: cell-based
Mus musculus [9] = assay: Analgesic activity in Bennett mouse model of neuropathic pain assessed as reduction of CCI-induced cold allodynia at 10 mg/kg, po; type: functional
Mus musculus [10] = assay: Inhibition of capsaicin-induced hypothermia in mouse at 0.3 mg/kg, po administered 15 mins prior to capsaicin challenge measured 30 mins post capsaicin challenge; type: functional

| SMILES | pKi [1] | also measured |
| --- | --- | --- |
| CC(C(=O)NCc1ccc(C(F)(F)F)cc1N1CCC(Cc2cccc(F)c2)CC1)c1ccc(NS(C)(=O)=O)c(F)c1 (stereo not given) | 9.40 | – |
| CCCOc1cc(C(F)(F)F)ccc1CNC(=O)C(C)c1ccc(NS(C)(=O)=O)c(F)c1 (stereo not given) | 8.70 | – |
| CC(C(=O)NCc1ccc(C(F)(F)F)cc1N1CCC(Cc2ccc(F)cc2)CC1)c1ccc(NS(C)(=O)=O)c(F)c1 (stereo not given) | 9.40 | – |
| CCCCSc1cc(C(F)(F)F)ccc1CNC(=O)C(C)c1ccc(NS(C)(=O)=O)c(F)c1 (stereo not given) | 8.72 | – |
| CC(C(=O)NCc1ccc(C(F)(F)F)cc1SCc1ccco1)c1ccc(NS(C)(=O)=O)c(F)c1 (stereo not given) | 8.49 | – |
| C[C@@H](C(=O)NCc1ccc(C(F)(F)F)cc1SC1CCCCC1)c1ccc(NS(C)(=O)=O)c(F)c1 | 7.86 | – |
| CCCCN(C)c1cc(C(F)(F)F)ccc1CNC(=O)C(C)c1ccc(NS(C)(=O)=O)c(F)c1 (stereo not given) | 8.92 | – |
| CC(C(=O)NCc1ccc(C(F)(F)F)cc1[N+](=O)[O-])c1ccc(NS(C)(=O)=O)c(F)c1 (stereo not given) | – | Ki [1]: Not Active |
| C[C@H](C(=O)NCc1ccc(C(F)(F)F)cc1SC1CCCCC1)c1ccc(NS(C)(=O)=O)c(F)c1 | 9.52 | pKi [2]: 10.52; inhibition in vivo at 3 mg/kg (Mus musculus [4]): 57%; pIC50 [5]: 7.69; Activity (Mus musculus [6]): Non-toxic; Activity (Mus musculus [7]): Dose-dependent effect; pIC50 [8]: 8.14 |
| CC(C(=O)NCc1ccc(C(F)(F)F)cc1SC1CCCCC1)c1ccc(NS(C)(=O)=O)c(F)c1 (stereo not given) | 9.30 | – |
| CC(C(=O)NCc1ccc(C(F)(F)F)cc1-c1ccc(F)c(Cl)c1)c1ccc(NS(C)(=O)=O)c(F)c1 (stereo not given) | 9.22 | – |
| CC(C(=O)NCc1ccc(C(F)(F)F)cc1C1CCCCC1)c1ccc(NS(C)(=O)=O)c(F)c1 (stereo not given) | 9.22 | – |
| CC(C(=O)NCc1ccc(C(F)(F)F)nc1-c1ccc(F)c(Cl)c1)c1ccc(NS(C)(=O)=O)c(F)c1 (stereo not given) | 9.22 | – |
| CC(C(=O)NCc1ccc(C(F)(F)F)cc1N1CCN(c2cccc(C(F)(F)F)c2)CC1)c1ccc(NS(C)(=O)=O)c(F)c1 (stereo not given) | 8.41 | – |
| CC(C(=O)NCc1ccc(C(F)(F)F)cc1-c1cccc(Cl)c1)c1ccc(NS(C)(=O)=O)c(F)c1 (stereo not given) | 9.00 | – |
| CC(C)CCSc1cc(C(F)(F)F)ccc1CNC(=O)C(C)c1ccc(NS(C)(=O)=O)c(F)c1 (stereo not given) | 8.85 | – |
| CCCCCCSc1cc(C(F)(F)F)ccc1CNC(=O)C(C)c1ccc(NS(C)(=O)=O)c(F)c1 (stereo not given) | 8.74 | – |
| CC(C(=O)NCc1ccc(C(F)(F)F)cc1SCCCO)c1ccc(NS(C)(=O)=O)c(F)c1 (stereo not given) | – | Ki [1]: Not Active |
| CC(C(=O)NCc1ccc(C(F)(F)F)cc1SCc1ccccc1)c1ccc(NS(C)(=O)=O)c(F)c1 (stereo not given) | 9.30 | – |

Continued by rising pKi [1], values first:

| pKi [1] | SMILES | also measured |
| --- | --- | --- |
| 8.64 | COc1ccc(CSc2cc(C(F)(F)F)ccc2CNC(=O)C(C)c2ccc(NS(C)(=O)=O)c(F)c2)cc1 (stereo not given) | – |
| 8.64 | CCCCCSc1cc(C(F)(F)F)ccc1CNC(=O)C(C)c1ccc(NS(C)(=O)=O)c(F)c1 (stereo not given) | – |
| 8.96 | CC(C(=O)NCc1ccc(C(F)(F)F)cc1SCc1ccc(Cl)cc1)c1ccc(NS(C)(=O)=O)c(F)c1 (stereo not given) | – |
| 9.05 | CC1CCN(c2cc(C(F)(F)F)ccc2CNC(=O)C(C)c2ccc(NS(C)(=O)=O)c(F)c2)CC1 (stereo not given) | – |
| 9.05 | CC(C(=O)NCc1ccc(C(F)(F)F)cc1SCc1ccccc1Cl)c1ccc(NS(C)(=O)=O)c(F)c1 (stereo not given) | – |
| 9.10 | CC(C)COc1cc(C(F)(F)F)ccc1CNC(=O)C(C)c1ccc(NS(C)(=O)=O)c(F)c1 (stereo not given) | – |
| 9.30 | CC(C)CCOc1cc(C(F)(F)F)ccc1CNC(=O)C(C)c1ccc(NS(C)(=O)=O)c(F)c1 (stereo not given) | – |
| 9.30 | CC(C(=O)NCc1ccc(C(F)(F)F)cc1OCc1ccc(F)cc1)c1ccc(NS(C)(=O)=O)c(F)c1 (stereo not given) | – |
| 9.40 | CC(C(=O)NCc1ccc(C(F)(F)F)nc1N1CCC(C(F)(F)F)CC1)c1ccc(NS(C)(=O)=O)c(F)c1 (stereo not given) | – |
| 9.40 | CCCCCCc1cc(C(F)(F)F)ccc1CNC(=O)C(C)c1ccc(NS(C)(=O)=O)c(F)c1 (stereo not given) | – |
| 9.52 | CC(C(=O)NCc1ccc(C(F)(F)F)cc1SC1CCCC1)c1ccc(NS(C)(=O)=O)c(F)c1 (stereo not given) | pKi [2]: 10.52; inhibition (Mus musculus [3]): Dose-dependent effect; inhibition in vivo at 3 mg/kg (Mus musculus [4]): 80%; pIC50 [5]: 7.49; Activity (Mus musculus [6]): Non-toxic; Activity (Mus musculus [7]): Dose-dependent effect; pIC50 [8]: 7.43; MPE (Mus musculus [9]): 48%; inhibition in vivo at 0.3 mg/kg (Mus musculus [10]): 38% |
